Experiment [1] has as its system protein phosphatase 2A (E-ras 20 cell nuclear extract). The experiment can be described thus: Phosphatase activity, E-ras 20 cell nuclear extract. In kind it is cell-based, bovine. The procedure: Compounds 1-13 were tested for protein phosphatase 2A activation in malignant tumor cell cultures in vitro according to the protocol described in Bauer et al., 1996, "Modification of Growth Related Enzymatic Pathways and Apparent Loss of Tumorigenicity of a Ras-Transformed Bovine Endothelial Cell Line by Treatment with 5-Iodo-6-Amino-1,2-Benzopyrone (INH2 BP)," International J. of Oncology 8:239-252. All other compounds were ineffective.

Experiment [2] concerns E-ras 20 cells. Briefly: Growth inhibition, E-ras 20. The conditions noted are these: Bos taurus, 72 h; day 3; Table 11; read-out: I50 (day 3). It is filed as cell-based, bovine. The protocol:
E-ras 20 cells were cultured as reported, Bauer et al., 1996, "Modification of growth related enzymatic pathways and apparent loss of tumorigenicity of a ras-transformed bovine endothelial cell line by treatment with 5-iodo-6-amino-1,2-benzopyrone (INH2 BP)" Intl. J. Oncol. 8:239-252; HT-144 (melanoma), DU-145 (prostatic cancer), HeLa (cervical cancer), HL 60 (promyelocytic leukemia), MDA-MB-231 (mammary cancer), SK-Br-3 (mammary cancer), T47D (ductal mammary cancer), A559 (lung cancer) were obtained from American Type Culture Collection (Rockville, Md.) and cultured in prescribed media. The effect of DIME was tested in cultures with a starting cell density of 2×10^4 cells per cm^2 and comparison of the effect of DIME on cell growth (intact cells identified by Trypan blue exclusion) was assayed by direct cell counting after trypsinization in a hemocytometer 72 hours after drug addition.
For DIME-exposure experiments cells were seeded into 2 cm^2 wells at a density of 2×10^4 cells/cm^2. DIME at various concentrations was added to the medium at the time of seeding. The cell cultures were then incubated for 3 days (37° C. in 5% at CO2 atmosphere).

In experiment [3] the test system is E-ras 20 cells (E-ras transformed bovine endothelial cells). The experiment can be described thus: Tumorigenicity of pretreated E-ras 20 cells in athymic nude mice. It is filed as in vivo, bovine cells in nude mice. The conditions noted are these: 10 μM. The protocol: E-ras transformed bovine endothelial cells (Bauer et al., 1996, Intl. J. Oncology 8:239-252) were exposed to 10 μM DIME for […]. The DIME-treated cells (10^5 or 10^6 cells/100 μL) were injected subcutaneously into nude mice and tumor progression followed for 25 days.
Tumorigenicity of E-ras 20 Cells in athymic nude mice was assayed as described previously. Bauer et al., 1996, "Modification of growth related enzymatic pathways and apparent loss of tumorigenicity of a ras-transformed bovine endothelial cell line by treatment with 5-iodo-6-amino-1,2-benzopyrone (INH2 BP)" Intl. J. Oncol. 8:239-252. The in vivo antitumorigenic action of DIME was assayed on athymic mice inoculated with 10^6 MDA-MB-231 cells, as in the tumorgenicity assay. In about 10-14 days when subcutaneous tumors appeared, DIME treatment consisting of p.o. administration of DIME suspension (once a day) was commenced and continued for 28-32 days as reported, Kun et al., 1996, "Induction of tumor apotosis by methyl-3,5-diiodo-4-(4'-methoxyphenoxy) benzoate (DIME)", Abstract No. 102, Int. J. Oncol. 9:supplement 829.
The structural specificity of DIME and its homologs and analogs can be assessed by examining Table 7 and Table 8. We have prepared 17 novel structural analogs of DIME and compared the antitumor activity of 10 of the compounds (Table 8) which appears sufficient to draw some general conclusions. The biological assay chosen was the determination of antitumorigenic action of the drugs on the in vivo tumorigenicity of E-ras cells in nude mice, Bauer et al., 1996, "Modification of growth related enzymatic pathways and apparent loss of tumorigenicity of a ras-transformed bovine endothelial cell line by treatment with 5-iodo-6-amino-1,2-benzopyrone (INH2 BP)" Intl. J. Oncol. 8:239-252. E-ras 20 cells (10^5 or 10^6) were incubated with 10 μM DIME or analogs for 4 days, then 10^5 and 10^6 cells were inoculated subcutaneously into nude mice (5 per test) and rates of tumor formation quantitated by direct tumor volume measurements (cf. 2). […] Identical antitumorigenic tests were performed with nine DIME analogs and taking the effect of DIME as 100% (comparing tumor sizes at day 25) the antitumor efficacy was calculated as percent of DIME activity. […] Results summarized in Table 8 illustrate that substituents in R1 and R2 determine antitumor efficacy.
The efficacy of DIME analogs on in vivo tumorigenicity of Eras 20 cells i
athymic mice was compared to that of DIME (compound 1) which was taken as
100, determining the size of tumor reduction at day 25. Pretreatment with
DIME or its analogs (Table 7) was with 10 μM for 4 days prior to s.c.

Experiment [4] concerns MDA-MB-231 cells. The experiment can be described thus: Flow cytometry / M phase block. It is filed as cell-based, human. The protocol:
The MDA-MB-231 cell line was obtained from ATCC (Rockville, Md., USA) and cells were cultured in T-75 flasks at 37° C. in Minimum Essential Medium-alpha, supplemented with 10% FCS. In controls, not receiving DIME, 0.1 μg/ml colcemid was added to cultures for 4 hrs prior to the collection of metaphase-blocked cells and preparation of cell spreads. […] Cells (10^7) were isolated from T-75 trypsinization for 5 min with 0.025% trypsin, and sedimented by centrifugation, resuspended and kept in 10 ml of 75 mM KC1 at 37° C. for 10 min, resedimented, and fixed in 10 ml methanol-acetic acid, with four successive changes of methanol-acetic acid. An aliquot of the final cell suspension (100 μl) was dropped on ethanol-cleaned slides and air-dried.
Cells exposed to different treatments were grown to confluence, trypsinized, and washed with phosphate buffered saline (PBS). For nuclear analysis, cells were fixed in Vindelov Citrate cell buffer: sucrose 250 mM, trisodium citrate. 2H20 40 mM, DMSO 50 ml in 1000 ml solution, pH 7.6. Normal human lymphocytes obtained from blood were used as controls. Each cell sample and control was counted with a hemacytometer and the cell concentration was adjusted to 2×10^6 cells/ml. Two million cells from each cell line in a total volume of 2 ml were washed twice with fresh PBS, treated with 200 μg/ml RNAase at 37° C. for 30 min, and stained with 10 μg/ml propidium iodide for 45 min. Flow cytometric analysis was performed on a FACScan benchtop flow cytometer (Becton-Dickinson, San Jose, Calif., USA) equipped with an air-cooled argon laser tuned to 488 nm. Twenty thousand events were collected as six parameter list mode data for analysis and archival storage. Two light scatter parameters (forward and side), propidium iodide fluorescence measured at 575/26 nm and above 620 nm, and doublet discrimination by fluorescence pulse width and area were acquired at 1024 data channel resolution. Acquisition threshold was set on propidium iodide positive events above channel 100. Gating to exclude small debris, large clumps and cell doublets was done post acquisition.

Molecules are shown by their SMILES.

The text below walks through data of US6017958A, “Method of treating malignant tumors with thyroxine analogues having no significant hormonal activity” (Octamer, Inc., priority 1997, dated 2000).

Regarding `COC(=O)c1cc(I)c(Oc2ccc(OC)cc2)c(I)c1` [Compound 1, Methyl 3,5-diiodo-4-(4'-methoxyphenoxy)benzoate], the “Phosphatase Activity” value in experiment [1] (50 μM DIME, untreated 29 ± 5) is given as 44 ± 7 fmol Pi/mg protein × min. Moreover, the “activation of protein phosphatase 2A, fold” value in experiment [1] (50 μM, E-ras transformed cells) is “at least two-fold”. Moreover, the IC50 in experiment [2] turned out to be 1000 nM. For the same compound, the “tumorigenicity of pretreated cells” value in experiment [3] (3 days pretreatment, followed 25 days) is “nearly completely abolished tumorigenicity”. The “tumor formation from pretreated cells (FIG. 4)” value in experiment [3] (4 days pretreatment) is on record as “tumor formation was completely abrogated”. Besides, the “Efficacy (inhibition of E-ras 20 tumorigenicity, DIME = 100)” value in experiment [3] (4 days pretreatment, tumor size at day 25) is 100%. In addition, in experiment [4] (18 hrs of drug exposure), the “M phase block (nuclei with G2 content of DNA)” value is recorded as “nuclei with a G2 content of DNA had accumulated, indicating M phase block”. Further, in experiment [4] (colcemid 0.1 μg/ml, 4 hrs), the “cell cycle block in M phase, comparison of DIME and colcemid” value is listed as “indistinguishable with respect to the cell cycle block in M phase”.
